Assay results published in publication PMC11714206, “Massively Parallel Screening of Toll/Interleukin‐1 Receptor (TIR)‐Derived Peptides Reveals Multiple Toll‐Like Receptors (TLRs)‐Targeting Immunomodulatory Peptides” (Advanced Science, 2024).
“And” between values parts separate entries of the source, which are not always exact repeats. Equal values may be shown once.

Experiments:
[1] = target: T1, MAL^TIR (Homo sapiens, UniProt P58753); assay: T‐Surf phage library (P8 and P3) selection against MAL^TIR, four rounds, NGS read counts; type: binding; conditions: for P3_MAL Rank (after) / P3_MAL Rank (before): P3 library; for P8_MAL Rank (after) / P8_MAL Rank (before): P8 library; for Population: 4th round of selection against MAL TIR, share of NGS reads
T1 construct: MAL (residues 79–221); 6xHis; made in house; host or cells: E. coli BL21 (DE3)
Protocol: T‐Surf libraries were screened against the immobilized TIR domains of two major human TLR adaptor proteins, MAL^TIR and MyD88^TIR, allowing cross‐species selection of TIR‐binding motifs with 190 946 TIR‐derived peptides in a single binding assay (Scheme 1). Enriched phage pools from the fourth round of selection were analyzed using NGS after barcoding the peptide‐coding regions of the phage pools.
Phage display screening was performed by coating two wells of a 96‐well plate (Maxisorp, Thermo Fisher Scientific) with 100 µL of 5 µg mL^−1 TIR domains overnight; then, the coated wells were blocked with 200 µL of blocking buffer (0.2% BSA in PBS) and set aside for 1 h at 4 °C with gentle shaking. Next, 100 µL of the phage library was added to the wells and incubated for 1 h at room temperature (RT; 20 – 22 °C) with gentle shaking. The plate was washed four times with PBS containing 0.5% Tween‐20; the bound phages were eluted by adding 100 µL of 100 mM HCl to each well. The elute was neutralized with 10 µL of 1.0 M Tris‐HCl (pH 11.0). E. coli TG1 cells were grown to the log phase (A600 = ≈0.6), and 1 mL of the culture was incubated with 100 µL of the eluted phages for 30 min at 37 °C, with shaking at 200 rpm. Next, 1 µL of M13KO7 helper phages was added, followed by incubation for 45 min at 37 °C, with shaking. Subsequently, the cells were transferred to 25 mL of 2× yeast extract tryptone/carbenicillin/kanamycin medium and incubated overnight at 37 °C with shaking at 200 rpm. The amplified phages were precipitated with 20% PEG‐8000/2.5 M NaCl to be used for the next round of selection.
The naïve T‐Surf libraries in P8 and P3 and the enriched phage pools after four rounds were barcoded for NGS as previously described.^[ [59] ^] Briefly, 5 µL of the phage pool was used as a template for 20 cycles of a 50 µL PCR reaction using […] each of forward and reverse barcoded primers and PrimeSTAR Max DNA Polymerase. The PCR products were purified using Expin Gel SV (GeneAll). The NGS samples were quantified using qPCR, following the qPCR Quantification Protocol Guide (KAPA Library Quantification kits for Illumina Sequencing Platform), and qualified using the TapeStation High Sensitivity D1000 ScreenTape (Agilent Technologies). The indexed libraries were further sequenced by Macrogen (Seoul, Republic of Korea) using the NovaSeq platform (Illumina) with 100 bp paired‐end reads. The reads were demultiplexed by barcodes and filtered for an average Phred quality score of at least 30, followed by trimming the flanking consensus sequences using Cutadapt (version 2.3). Peptide sequence populations were analyzed according to the read counts.

[2] = target: T2, MyD88^TIR (Homo sapiens, UniProt Q99836); assay: T‐Surf phage library (P8 and P3) selection against MyD88^TIR, four rounds, NGS read counts; type: binding
T2 construct: MyD88 (residues 148–296); 6xHis; made in house; host or cells: E. coli BL21 (DE3)
Procedure, shortened: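 Library of 190 946 TIR‐derived peptides on P8 or P3 was panned on immobilized TIR domain coated at 5 µg mL^−1, BSA‐blocked, 1 h binding at RT, PBS/0.5% Tween‐20 washes, HCl elution, TG1 amplification. Fourth‐round pools were PCR‐barcoded, sequenced (100 bp paired‐end, Phred ≥30), and peptides ranked by read counts.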

[3] = selection against MAL, rank after grouping
[4] = selection against MAL, rank before grouping
[5] = 4R selection against MAL, rank after grouping
[6] = 4R selection against MAL, rank before grouping
[7] = P3_MAL pool: P3 T-Surf phage library
[8] = selection against MAL TIR, rank by count after grouping
[9] = selection against MAL TIR, rank by count before grouping
[10] = selection against MAL, rank by count after grouping
[11] = selection against MAL, rank by count before grouping
[12] = P3_MAL: rank by count after grouping
[13] = P3_MAL: rank by count before grouping
[14] = P8_MAL pool: P8 T-Surf phage library
[15] = P8_MAL: rank by count after grouping
[16] = P8_MAL: rank by count before grouping

T1 sequence (P58753 79-221): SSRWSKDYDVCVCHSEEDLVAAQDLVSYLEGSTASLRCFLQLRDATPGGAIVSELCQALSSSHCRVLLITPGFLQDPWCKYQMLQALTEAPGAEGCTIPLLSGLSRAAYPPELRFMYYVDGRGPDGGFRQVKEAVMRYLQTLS
T2 sequence (Q99836 148-296): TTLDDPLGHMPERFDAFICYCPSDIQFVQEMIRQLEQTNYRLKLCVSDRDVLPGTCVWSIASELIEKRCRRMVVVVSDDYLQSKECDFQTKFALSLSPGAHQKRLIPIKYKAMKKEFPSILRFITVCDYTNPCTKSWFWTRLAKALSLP

With SSFREGLGLLLELGKK the “P3_MAL Rank (after)” value [1, 3] was 535 and the “P3_MAL Rank (before)” value [1, 4] was 3175.
In the case of RGFLSHLRHPVHPKDH, the “P3_MAL Rank (after)” value [1, 5] is reported as 615 and the “P3_MAL Rank (before)” value [1, 6] is reported as 2367.
RNFVAHLFQALANKAI was tested, and the “P8_MAL Rank (after)” value [1, 5] was 667 and the “P8_MAL Rank (before)” value [1, 6] was 2233.
In the case of YAFTGHLHRSLVQRGV, the Population [1, 7] is reported as 0.00413%.
WFYERLVRLILRDNKV was tested, and the “P8_MAL Rank (after)” value [1, 5] was 607 and the “P8_MAL Rank (before)” value [1, 6] was 1280.
ESILNQLRRSSQSMR was tested, and the “P3_MAL Rank (after)” value [1, 8] was 202 and the “P3_MAL Rank (before)” value [1, 9] was 2061.
In the case of NGYGSELIKEIVDTGV, the “P3_MAL Rank (after)” value [1, 10] is reported as 702 and the “P3_MAL Rank (before)” value [1, 11] is reported as 3249.
In the case of RGFLSHLRHLLQAKDP, the “P3_MAL Rank (after)” value [1, 8] is reported as 193 and the “P3_MAL Rank (before)” value [1, 9] is reported as 2405.
With LNVESWRQALEKAGKL the Population [1, 7] was 0.00338%.
LNLRTKVLNYLMRTKT gave a Population [1, 7] of 0.00488%.
With YAFTGYLHRYLVQRGV the Population [1, 7] was 0.00827%.
WFWEKLRYALTAAANLSGW was tested, and the “Rank (after)” value [1, 12] was 149 and the “Rank (before)” value [1, 13] was 501.
LKEESWRQAQEKAGKL was tested, and the “P3_MAL Rank (after)” value [1, 10] was 744 and the “P3_MAL Rank (before)” value [1, 11] was 2310.
YAFTGHLHRYLLQKM was tested, and the “P3_MAL Rank (after)” value [1, 8] was 254 and the “P3_MAL Rank (before)” value [1, 9] was 737.
In the case of SSFREDLWRLRERSKQ, the “P3_MAL Rank (after)” value [1, 3] is reported as 491 and the “P3_MAL Rank (before)” value [1, 4] is reported as 3187.
In the case of AFFWAQLKSELGNPTM, the Population [1, 14] is reported as 0.00463%.
In the case of KELLHKWKLALTQTPN, the “P3_MAL Rank (after)” value [1, 5] is reported as 621 and the “P3_MAL Rank (before)” value [1, 6] is reported as 3593.
For HHTGSYGQALAEHEKR, the “P3_MAL Rank (after)” value [1, 5] was 584 and the “P3_MAL Rank (before)” value [1, 6] was 2814.
SLLKYKEALPQFHSWL was tested, and the “P3_MAL Rank (after)” value [1, 5] was 586 and the “P3_MAL Rank (before)” value [1, 6] was 2982.
For DWCLSKLSQHTLKREK, the “Rank (after)” value [1, 12] was 481 and the “Rank (before)” value [1, 13] was 1908.
RGYLRHVRHHLQAKDH was tested, and the “P3_MAL Rank (after)” value [1, 5] was 657 and the “P3_MAL Rank (before)” value [1, 6] was 2426.
In the case of LFFWESLKQLLGNPTM, the “Rank (after)” value [1, 15] is reported as 177 and the “Rank (before)” value [1, 16] is reported as 909.
In the case of SFLHFLLFSRPETASI, the “P8_MAL Rank (after)” value [1, 5] is reported as 642 and the “P8_MAL Rank (before)” value [1, 6] is reported as 1437.
RLLNGKKRCISFIAG was tested, and the “P3_MAL Rank (after)” value [1, 8] was 261 and the “P3_MAL Rank (before)” value [1, 9] was 2475.
PNLRTTLMTSPMRTKT was tested, and the “P3_MAL Rank (after)” value [1, 5] was 656 and the “P3_MAL Rank (before)” value [1, 6] was 2673.
LSGWAFKRGSCAEYEY was tested, and the “Rank (after)” value [1, 12] was 398 and the “Rank (before)” value [1, 13] was 2188.
For DAEDMFWTQLREALDA, the “P8_MAL Rank (after)” value [1, 5] was 602 and the “P8_MAL Rank (before)” value [1, 6] was 1987.
With SPRKNLVSNLIEEFTR the “P3_MAL Rank (after)” value [1, 8] was 252 and the “P3_MAL Rank (before)” value [1, 9] was 3108.
LKWGDPRQASKLGYTM was tested, and the “P3_MAL Rank (after)” value [1, 10] was 761 and the “P3_MAL Rank (before)” value [1, 11] was 2242.
TFLGHLYNALVQAGIP showed a Population [1, 14] of 0.00463%.
For RGFLNQLRQHLHAKDH, the “P3_MAL Rank (after)” value [1, 3] was 548 and the “P3_MAL Rank (before)” value [1, 4] was 2403.
With RNIVAYPFQALANIGI the “Rank (after)” value [1, 15] was 437 and the “Rank (before)” value [1, 16] was 2252.
With HHKGSYGEALHQFHSWV the “P3_MAL Rank (after)” value [1, 3] was 541 and the “P3_MAL Rank (before)” value [1, 4] was 2842.
In the case of LFLWESLKHLLRSDGR, the “P8_MAL Rank (after)” value [1, 8] is reported as 232 and the “P8_MAL Rank (before)” value [1, 9] is reported as 2146.
With YFLHFLLLAVRKPSI the “P8_MAL Rank (after)” value [1, 8] was 196 and the “P8_MAL Rank (before)” value [1, 9] was 791.
In the case of WFYERLVSLIRRDIKV, the “P8_MAL Rank (after)” value [1, 10] is reported as 694 and the “P8_MAL Rank (before)” value [1, 11] is reported as 1219.
With AFFCTHLKSVLDNPTM the “P8_MAL Rank (after)” value [1, 5] was 623 and the “P8_MAL Rank (before)” value [1, 6] was 1589.
KEVEGWRDALRKIANIF was tested, and the “Rank (after)” value [1, 12] was 417 and the “Rank (before)” value [1, 13] was 3560.
For VLQNFISHPYDFLARK, the “P3_MAL Rank (after)” value [1, 3] was 570 and the “P3_MAL Rank (before)” value [1, 4] was 1688.
For KRFEDRMNKVLEWKAA, the “P8_MAL Rank (after)” value [1, 10] was 698 and the “P8_MAL Rank (before)” value [1, 11] was 2674.
With PNLSPKVLNYLMRTKT the “Rank (after)” value [1, 12] was 181 and the “Rank (before)” value [1, 13] was 2751.
With PNLLTKVLHYLMRTKT the “P3_MAL Rank (after)” value [1, 10] was 768 and the “P3_MAL Rank (before)” value [1, 11] was 2667.
RNLVAYLFQALETKGI was tested, and the “Rank (after)” value [1, 15] was 416 and the “Rank (before)” value [1, 16] was 2243.
AFLWTQLKNVLGNPTF was tested, and the “Rank (after)” value [1, 15] was 408 and the “Rank (before)” value [1, 16] was 1766.
With LFFWEKLKSVLGNPTM the “P8_MAL Rank (after)” value [1, 10] was 693 and the “P8_MAL Rank (before)” value [1, 11] was 2067.
With RLLKWKEALQQVHSWV the “Rank (after)” value [1, 12] was 148 and the “Rank (before)” value [1, 13] was 2470.
For YFWHALKNALAVNNDV, the Population [1, 7] was 0.056%, the “Rank (after)” value [1, 12] was 97 and the “Rank (before)” value [1, 13] was 97.
With AFFWEQLRTVLGKPR the “Rank (after)” value [1, 15] was 130 and the “Rank (before)” value [1, 16] was 835.
SFFWNKLRYHLPAPQH was tested, and the “P8_MAL Rank (after)” value [1, 8] was 269 and the “P8_MAL Rank (before)” value [1, 9] was 2441.
NQCHNAITADMNQTRL was tested, and the “Rank (after)” value [1, 12] was 402 and the “Rank (before)” value [1, 13] was 3424.
For MFGGDTFHDFLDLISM, the “P8_MAL Rank (after)” value [1, 8] was 192 and the “P8_MAL Rank (before)” value [1, 9] was 1005.
WFYKRLVSLILRDTKV showed a Population [1, 14] of 0.00402%.
In the case of LKWGDPYFWSNCVMR, the “P3_MAL Rank (after)” value [1, 10] is reported as 699 and the “P3_MAL Rank (before)” value [1, 11] is reported as 2216.
NNLFNELVSKNIRTFT was tested, and the “P3_MAL Rank (after)” value [1, 10] was 735 and the “P3_MAL Rank (before)” value [1, 11] was 3480.
With RLLKWKEALHQFHSWV the Population [1, 7] was 0.00451%, the “Rank (after)” value [1, 15] was 115 and the “Rank (before)” value [1, 16] was 655.
With *FYERLVSLILRDTKV the Population [1, 14] was 0.00402% and 0.00278%.
With LKVESWRQALKQRAL the “P3_MAL Rank (after)” value [1, 3] was 483 and the “P3_MAL Rank (before)” value [1, 4] was 2283.
Substance LFFWESLKQLLRSGGR has a Population [1, 14] of 0.0034%.
AFFCAQLKSVLGNPTM gave a Population [1, 14] of 0.00309%.
For ARFKDMIINKWRTALTQAAN, the “P3_MAL Rank (after)” value [1, 3] was 513 and the “P3_MAL Rank (before)” value [1, 4] was 1847.
For WFYERLVRLFLRDTKV, the “Rank (after)” value [1, 15] was 446 and the “Rank (before)” value [1, 16] was 1237.
SLRKNLVRNLIEEFNR was tested, and the “P3_MAL Rank (after)” value [1, 10] was 759 and the “P3_MAL Rank (before)” value [1, 11] was 3094.
For FLNFRGLGGRNYFLGH, the “P3_MAL Rank (after)” value [1, 5] was 628 and the “P3_MAL Rank (before)” value [1, 6] was 1147.
DPQGLAWFYERLVSLL was tested, and the “Rank (after)” value ([2]; P8_MyD88: rank by count after grouping) was 443 and the “Rank (before)” value ([2]; P8_MyD88: rank by count before grouping) was 2664.
